In BindingDB's records for doi:10.1021/acs.jmedchem.5b01091 (University of Manchester, 2016):

Assay: Inhibition of NLRP3 in mouse J774 macrophages assessed as reduction in Bacillus anthracis lethal toxin induced cell death

In the case of `CC1(C)C(=O)C=C[C@]2(C)[C@H]3CC[C@@]4(C)[C@H](c5ccoc5)OC(=O)[C@H]5O[C@]54[C@]3(C)C=C[C@@H]12`, the IC50 is reported as 5 µM.
